According to the NIST ThermoML archive (doi:10.1016/j.jct.2013.08.005):
Numbers after ± are expanded uncertainties.

details: 298.15 K; Liquid; Gas chromatography

Point of comparison: `CCCCNCCCC` [dibutylamine], “vapor or sublimation pressure” value 0.383 ± 0.12 kPa. Against it:
- C[C@@H]1CCC[C@H](C)N1 [2,6-lupetidine, cis-] — higher, 1.576 ± 0.33 kPa
- c1ccc(CC2CCNCC2)cc1 [4-benzylpiperidine] — lower, 0.0015 ± 0.0003 kPa
- CN[C@@H](C)Cc1ccccc1 [(S)-N-methyl-1-phenylpropan-2-amine] — lower, 0.0375 ± 0.008 kPa
- CCCCCCCNCCCCCCC [N-heptyl-1-heptanamine] — lower, 0.00054 ± 0.00011 kPa
- CCCCCCCCNCCCCCCCC [dioctylamine] — lower, 5.6e-05 ± 1.2e-05 kPa
- CCCCCNCCCCC [dipentylamine] — lower, 0.041 ± 0.009 kPa
- C1CCNCC1 [piperidine] — higher, 3.52 ± 0.75 kPa
